Results on three compounds are retold here after patent publication US20140235689A1, “FUNGICIDAL PYRAZOLES” (E I DU PONT DE NEMOURS AND COMPANY, priority 2013, published 2014).

What all share (type): in vivo
For assay [1], the system named is Blumeria graminis f. sp. tritici. In words: Test G: wheat powdery mildew, preventive spray on wheat seedlings. The settings on record: 200 ppm test suspension, inoculated following day with spore dust, visual rating, relative to controls. The method, then: General protocol for preparing test suspensions for Tests A-D: the test compounds were first dissolved in acetone in an amount equal to 3% of the final volume and then suspended at the desired concentration (in ppm) in acetone and purified water (50/50 mix by volume) containing 250 ppm of the surfactant Trem® 014 (polyhydric alcohol esters). The resulting test suspensions were then used in Tests A-G. Each test was conducted in triplicate, and the results were averaged. Spraying a 200 ppm test suspension to the point of run-off on the test plants was the equivalent of a rate of 800 g/ha. Unless otherwise indicated, the rating values indicate a 200 ppm test suspension was used. (An asterisk “*” next to the rating value indicates a 40 ppm test suspension was used.) The test suspension was sprayed to the point of run-off on wheat seedlings. The following day the seedlings were inoculated with a spore dust of Blumeria graminis f. sp. tritici (also known as Erysiphe graminis f. sp. tritici, the causal agent of wheat powdery mildew) and incubated in a growth chamber at 20° C. for 8 days, after which time visual disease ratings were made. Results for Tests A-G are given in Table A. In the Table, a rating of 100 indicates 100% disease control and a rating of 0 indicates no disease control (relative to the controls). A hyphen (-) indicates no test results.

Assay [2] concerns Puccinia recondita f. sp. tritici. The assay can be described thus: Test E: wheat leaf rust, spray after inoculation (curative) on wheat seedlings. The settings on record: 200 ppm test suspension, wheat seedlings sprayed after inoculation, visual rating, relative to controls. How it is done: General protocol for preparing test suspensions for Tests A-D: the test compounds were first dissolved in acetone in an amount equal to 3% of the final volume and then suspended at the desired concentration (in ppm) in acetone and purified water (50/50 mix by volume) containing 250 ppm of the surfactant Trem® 014 (polyhydric alcohol esters). The resulting test suspensions were then used in Tests A-G. Each test was conducted in triplicate, and the results were averaged. Spraying a 200 ppm test suspension to the point of run-off on the test plants was the equivalent of a rate of 800 g/ha. Unless otherwise indicated, the rating values indicate a 200 ppm test suspension was used. (An asterisk “*” next to the rating value indicates a 40 ppm test suspension was used.) Wheat seedlings were inoculated with a spore suspension of Puccinia recondita f. sp. tritici (the causal agent of wheat leaf rust) and incubated in a saturated atmosphere at 20° C. for 24 h, and then moved to a growth chamber at 20° C. for 2 days. After 2 days, the test suspension was sprayed to the point of run-off on the wheat seedlings, and then the seedlings were moved back to the growth chamber at 20° C. for 4 days. Upon removal, visual disease ratings were made. […]

For assay [3] the test system is unchanged. The assay can be described thus: Test F: wheat leaf rust, preventive spray on wheat seedlings. As to conditions: 200 ppm test suspension, inoculated following day, visual rating, relative to controls. The method, then: General protocol for preparing test suspensions for Tests A-D: the test compounds were first dissolved in acetone in an amount equal to 3% of the final volume and then suspended at the desired concentration (in ppm) in acetone and purified water (50/50 mix by volume) containing 250 ppm of the surfactant Trem® 014 (polyhydric alcohol esters). The resulting test suspensions were then used in Tests A-G. Each test was conducted in triplicate, and the results were averaged. Spraying a 200 ppm test suspension to the point of run-off on the test plants was the equivalent of a rate of 800 g/ha. Unless otherwise indicated, the rating values indicate a 200 ppm test suspension was used. (An asterisk “*” next to the rating value indicates a 40 ppm test suspension was used.) The test suspension was sprayed to the point of run-off on wheat seedlings. The following day the seedlings were inoculated with a spore suspension of Puccinia recondita f. sp. tritici (the causal agent of wheat leaf rust) and incubated in a saturated atmosphere at 20° C. for 24 h, and then moved to a growth chamber at 20° C. for 6 days, after which time visual disease ratings were made. Results for Tests A-G are given in Table A. In the Table, a rating of 100 indicates 100% disease control and a rating of 0 indicates no disease control (relative to the controls). A hyphen (-) indicates no test results.

A further assay relates to Septoria tritici. The assay can be described thus: Test D: wheat leaf blotch, preventive spray on wheat seedlings. The settings on record: 200 ppm test suspension, inoculated following day, visual rating, relative to controls. How it is done: General protocol for preparing test suspensions for Tests A-D: the test compounds were first dissolved in acetone in an amount equal to 3% of the final volume and then suspended at the desired concentration (in ppm) in acetone and purified water (50/50 mix by volume) containing 250 ppm of the surfactant Trem® 014 (polyhydric alcohol esters). The resulting test suspensions were then used in Tests A-G. Each test was conducted in triplicate, and the results were averaged. Spraying a 200 ppm test suspension to the point of run-off on the test plants was the equivalent of a rate of 800 g/ha. Unless otherwise indicated, the rating values indicate a 200 ppm test suspension was used. (An asterisk “*” next to the rating value indicates a 40 ppm test suspension was used.) The test suspension was sprayed to the point of run-off on wheat seedlings. The following day the seedlings were inoculated with a spore suspension of Septoria tritici (the causal agent of wheat leaf blotch) and incubated in saturated atmosphere at 24° C. for 48 h. and then the seedlings were moved to a growth chamber at 20° C. for 19 additional days, after which time visual disease ratings were made. Results for Tests A-G are given in Table A. In the Table, a rating of 100 indicates 100% disease control and a rating of 0 indicates no disease control (relative to the controls). A hyphen (-) indicates no test results.

Another assay relates to Alternaria solani. The assay can be described thus: Test B: tomato early blight, preventive spray on tomato seedlings. The settings on record: 200 ppm test suspension, inoculated following day, visual rating, relative to controls. The method, then: General protocol for preparing test suspensions for Tests A-D: the test compounds were first dissolved in acetone in an amount equal to 3% of the final volume and then suspended at the desired concentration (in ppm) in acetone and purified water (50/50 mix by volume) containing 250 ppm of the surfactant Trem® 014 (polyhydric alcohol esters). The resulting test suspensions were then used in Tests A-G. Each test was conducted in triplicate, and the results were averaged. Spraying a 200 ppm test suspension to the point of run-off on the test plants was the equivalent of a rate of 800 g/ha. Unless otherwise indicated, the rating values indicate a 200 ppm test suspension was used. (An asterisk “*” next to the rating value indicates a 40 ppm test suspension was used.) The test suspension was sprayed to the point of run-off on tomato seedlings. The following day the seedlings were inoculated with a spore suspension of Alternaria solani (the causal agent of tomato early blight) and incubated in a saturated atmosphere at 27° C. for 48 h, and then moved to a growth chamber at 20° C. for 5 days, after which time visual disease ratings were made. Results for Tests A-G are given in Table A. In the Table, a rating of 100 indicates 100% disease control and a rating of 0 indicates no disease control (relative to the controls). A hyphen (-) indicates no test results.

The subject of a further assay is Septoria nodorum. The assay can be described thus: Test C: Septoria glume blotch, preventive spray on wheat seedlings. The settings on record: 200 ppm test suspension, inoculated following day, visual rating, relative to controls. How it is done: General protocol for preparing test suspensions for Tests A-D: the test compounds were first dissolved in acetone in an amount equal to 3% of the final volume and then suspended at the desired concentration (in ppm) in acetone and purified water (50/50 mix by volume) containing 250 ppm of the surfactant Trem® 014 (polyhydric alcohol esters). The resulting test suspensions were then used in Tests A-G. Each test was conducted in triplicate, and the results were averaged. Spraying a 200 ppm test suspension to the point of run-off on the test plants was the equivalent of a rate of 800 g/ha. Unless otherwise indicated, the rating values indicate a 200 ppm test suspension was used. (An asterisk “*” next to the rating value indicates a 40 ppm test suspension was used.) The test suspension was sprayed to the point of run-off on wheat seedlings. The following day the seedlings were inoculated with a spore suspension of Septoria nodorum (the causal agent of Septoria glume blotch) and incubated in a saturated atmosphere at 24° C. for 48 h, and then moved to a growth chamber at 20° C. for 9 days, after which time visual disease ratings were made. Results for Tests A-G are given in Table A. In the Table, a rating of 100 indicates 100% disease control and a rating of 0 indicates no disease control (relative to the controls). A hyphen (-) indicates no test results.

The next assay deals with Botrytis cinerea. In words: Test A: tomato Botrytis, preventive spray on tomato seedlings. As to conditions: 200 ppm test suspension, inoculated following day, visual rating, relative to controls. The method, then:
General protocol for preparing test suspensions for Tests A-D: the test compounds were first dissolved in acetone in an amount equal to 3% of the final volume and then suspended at the desired concentration (in ppm) in acetone and purified water (50/50 mix by volume) containing 250 ppm of the surfactant Trem® 014 (polyhydric alcohol esters). The resulting test suspensions were then used in Tests A-G. Each test was conducted in triplicate, and the results were averaged. Spraying a 200 ppm test suspension to the point of run-off on the test plants was the equivalent of a rate of 800 g/ha. Unless otherwise indicated, the rating values indicate a 200 ppm test suspension was used. (An asterisk “*” next to the rating value indicates a 40 ppm test suspension was used.) The test suspension was sprayed to the point of run-off on tomato seedlings. The following day the seedlings were inoculated with a spore suspension of Botrytis cinerea (the causal agent of tomato Botrytis) and incubated in saturated atmosphere at 20° C. for 48 h, and then moved to a growth chamber at 24° C. for 3 additional days, after which time visual disease ratings were made. Results for Tests A-G are given in Table A. In the Table, a rating of 100 indicates 100% disease control and a rating of 0 indicates no disease control (relative to the controls). A hyphen (-) indicates no test results.

`CNC(c1ccc(F)cc1F)c1c(-c2c(F)cccc2F)c(C)nn1C` (stereo not drawn) [Compound 2, α-(2,4-difluorophenyl)-4-(2,6-difluorophenyl)-N,1,3-trimethyl-1H-pyrazol-5-methanamine]: in assay [1], the “Test G disease control rating (100 = 100% disease control, 0 = no disease control)” value is given as 82. In assay [2], the “Test E disease control rating (100 = 100% disease control, 0 = no disease control)” value was determined as 0. The “Test F disease control rating (100 = 100% disease control, 0 = no disease control)” value in assay [3] is on record as 0. Also, the “Test D disease control rating (100 = 100% disease control, 0 = no disease control)” value in the assay on Septoria tritici is listed as 99. For the same compound, in the assay with Alternaria solani, the “Test B disease control rating (100 = 100% disease control, 0 = no disease control)” value was found to be 0. The “Test C disease control rating (100 = 100% disease control, 0 = no disease control)” value with Septoria nodorum amounted to 0.
As for `CSC(c1ccc(F)cc1F)c1c(-c2c(F)cccc2F)c(C)nn1C` (centres unmarked) [Compound 4, 4-(2,6-difluorophenyl)-5-[(2,4-difluorophenyl)(methylthio)methyl]-1,3-dimethyl-1H-pyrazole], the “Test G disease control rating (100 = 100% disease control, 0 = no disease control)” value in assay [1] was 82. In addition, the “Test E disease control rating (100 = 100% disease control, 0 = no disease control)” value in assay [2] is given as 9. The “Test F disease control rating (100 = 100% disease control, 0 = no disease control)” value in assay [3] is listed as 85. Moreover, the “Test A disease control rating (100 = 100% disease control, 0 = no disease control)” value with Botrytis cinerea is given as 31. Further, the “Test D disease control rating (100 = 100% disease control, 0 = no disease control)” value with Septoria tritici is listed as 99. The “Test B disease control rating (100 = 100% disease control, 0 = no disease control)” value with Alternaria solani stood at 0. In addition, the “Test C disease control rating (100 = 100% disease control, 0 = no disease control)” value with Septoria nodorum is given as 0.
For the compound `Cc1nn(C)c(C(N)c2ccc(F)cc2F)c1-c1c(F)cccc1F` (stereo not drawn) [Compound 3, α-(2,4-difluorophenyl)-4-(2,6-difluorophenyl)-1,3-dimethyl-1H-pyrazol-5-methanamine], the “Test G disease control rating (100 = 100% disease control, 0 = no disease control)” value in assay [1] came to 98. The “Test F disease control rating (100 = 100% disease control, 0 = no disease control)” value in assay [3] turned out to be 99. Besides, the “Test A disease control rating (100 = 100% disease control, 0 = no disease control)” value in the assay on Botrytis cinerea amounted to 98. Further, in the assay on Septoria tritici, the “Test D disease control rating (100 = 100% disease control, 0 = no disease control)” value amounted to 100.
